Experimental data as given in the supplement of paper PMC10307832.

Columns and labels:
Test in all cases: relative viability (nuclei count vs DMSO), 5 days (fraction); higher = more cells survive
NCI-H661 = test system: NCI-H661
Outline: (§1)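 Medians of duplicate plates are given as relative viability. That measure is the nuclei count in treated wells divided by the count in vehicle wells. Counts were taken on 4× images of lung cancer cell lines in 1536-well plates, 5 days after pin-tool dosing the day after seeding with one drug alone or a fixed anchor-drug dose plus five library-drug doses (not always all listed) in √10 steps.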

NCI-H2228 = test system: NCI-H2228
Outline: as §1

RERF-LC-KJ = test system: RERF-LC-KJ
Outline: as §1

NCI-H1755 = test system: NCI-H1755
Outline: as §1

NCI-H1734 = test system: NCI-H1734
Outline: as §1

NCI-H520 = test system: NCI-H520
Outline: as §1

NCI-H1563 = test system: NCI-H1563
Outline: as §1

HCC-827 = test system: HCC-827
Outline: as §1

NCI-H1355 = test system: NCI-H1355
Outline: as §1

LCLC-97TM1 = test system: LCLC-97TM1
Outline: as §1

HCC-15 = test system: HCC-15
Outline: as §1

H3255 = test system: H3255
Outline: as §1

CAL-12T = test system: CAL-12T
Outline: as §1

PC-3 [JPC-3] = test system: PC-3 [JPC-3]
Outline: as §1

LK-2 = test system: LK-2
Outline: as §1

EKVX = test system: EKVX
Outline: as §1

NCI-H2405 = test system: NCI-H2405
Outline: as §1

NCI-H322M = test system: NCI-H322M
Outline: as §1

PC-14 = test system: PC-14
Outline: as §1

NCI-H1975 = test system: NCI-H1975
Outline: as §1

**Q.** `O=c1cc(-c2cccc3c2Sc2ccccc2S3)oc(N2CCOCC2)c1` + Cc1nc(NC(=O)N2CCC[C@H]2C(N)=O)sc1-c1ccnc(C(C)(C)C(F)(F)F)c1 [Alpelisib] (partner 2 µM) was tested. Which relative viability (NCI-H661; first compound 0.08 µM) did it give?
**A.** 0.541

**Q.** What about the relative viability (NCI-H661; first compound 0.253 µM) of the same compound?
**A.** 0.753

**Q.** What about the relative viability (NCI-H661; first compound 0.8 µM) of the same compound?
**A.** 0.594

**Q.** And the relative viability (NCI-H661; first compound 2.53 µM)?
**A.** 0.512

**Q.** And the relative viability (NCI-H661; first compound 8 µM)?
**A.** 0.98

**Q.** And the relative viability (NCI-H2228; first compound 0.08 µM)?
**A.** 0.75

**Q.** And the relative viability (NCI-H2228; first compound 0.253 µM)?
**A.** 0.846

**Q.** What about the relative viability (NCI-H2228; first compound 0.8 µM) of the same compound?
**A.** 0.828

**Q.** And the relative viability (NCI-H2228; first compound 2.53 µM)?
**A.** 0.561

**Q.** And the relative viability (NCI-H2228; first compound 8 µM)?
**A.** 0.737

**Q.** And the relative viability (RERF-LC-KJ; first compound 0.08 µM)?
**A.** 0.83

**Q.** What about the relative viability (RERF-LC-KJ; first compound 0.253 µM) of the same compound?
**A.** 0.917

**Q.** What about the relative viability (RERF-LC-KJ; first compound 0.8 µM) of the same compound?
**A.** 0.824

**Q.** What about the relative viability (RERF-LC-KJ; first compound 2.53 µM) of the same compound?
**A.** 0.741

**Q.** And the relative viability (RERF-LC-KJ; first compound 8 µM)?
**A.** 0.939

**Q.** What about the relative viability (NCI-H1755; first compound 0.08 µM) of the same compound?
**A.** 0.889

**Q.** And the relative viability (NCI-H1755; first compound 0.253 µM)?
**A.** 1.22

**Q.** What about the relative viability (NCI-H1755; first compound 0.8 µM) of the same compound?
**A.** 0.945

**Q.** What about the relative viability (NCI-H1755; first compound 2.53 µM) of the same compound?
**A.** 0.925

**Q.** What about the relative viability (NCI-H1755; first compound 8 µM) of the same compound?
**A.** 0.964

**Q.** What about the relative viability (NCI-H1734; first compound 0.08 µM) of the same compound?
**A.** 0.595

**Q.** What about the relative viability (NCI-H1734; first compound 0.253 µM) of the same compound?
**A.** 0.841

**Q.** What about the relative viability (NCI-H1734; first compound 0.8 µM) of the same compound?
**A.** 0.729

**Q.** And the relative viability (NCI-H1734; first compound 2.53 µM)?
**A.** 0.662

**Q.** And the relative viability (NCI-H1734; first compound 8 µM)?
**A.** 0.706

**Q.** What about the relative viability (NCI-H520; first compound 0.08 µM) of the same compound?
**A.** 0.874

**Q.** What about the relative viability (NCI-H520; first compound 0.253 µM) of the same compound?
**A.** 0.979

**Q.** And the relative viability (NCI-H520; first compound 0.8 µM)?
**A.** 1.09

**Q.** And the relative viability (NCI-H520; first compound 2.53 µM)?
**A.** 1.03

**Q.** And the relative viability (NCI-H520; first compound 8 µM)?
**A.** 0.971

**Q.** And the relative viability (NCI-H1563; first compound 0.08 µM)?
**A.** 0.917

**Q.** What about the relative viability (NCI-H1563; first compound 0.253 µM) of the same compound?
**A.** 1.04

**Q.** And the relative viability (NCI-H1563; first compound 0.8 µM)?
**A.** 0.853

**Q.** And the relative viability (NCI-H1563; first compound 2.53 µM)?
**A.** 0.848

**Q.** What about the relative viability (NCI-H1563; first compound 8 µM) of the same compound?
**A.** 0.822

**Q.** And the relative viability (HCC-827; first compound 0.08 µM)?
**A.** 0.957

**Q.** What about the relative viability (HCC-827; first compound 0.253 µM) of the same compound?
**A.** 1.02

**Q.** And the relative viability (HCC-827; first compound 0.8 µM)?
**A.** 1.01

**Q.** What about the relative viability (HCC-827; first compound 2.53 µM) of the same compound?
**A.** 0.826

**Q.** And the relative viability (HCC-827; first compound 8 µM)?
**A.** 0.979

**Q.** And the relative viability (NCI-H1355; first compound 0.08 µM)?
**A.** 0.726

**Q.** What about the relative viability (NCI-H1355; first compound 0.253 µM) of the same compound?
**A.** 0.949

**Q.** What about the relative viability (NCI-H1355; first compound 0.8 µM) of the same compound?
**A.** 0.601

**Q.** What about the relative viability (NCI-H1355; first compound 2.53 µM) of the same compound?
**A.** 0.748

**Q.** And the relative viability (NCI-H1355; first compound 8 µM)?
**A.** 0.704

**Q.** What about the relative viability (LCLC-97TM1; first compound 0.08 µM) of the same compound?
**A.** 0.238

**Q.** And the relative viability (LCLC-97TM1; first compound 0.253 µM)?
**A.** 0.27

**Q.** And the relative viability (LCLC-97TM1; first compound 0.8 µM)?
**A.** 0.323

**Q.** What about the relative viability (LCLC-97TM1; first compound 2.53 µM) of the same compound?
**A.** 0.205

**Q.** What about the relative viability (LCLC-97TM1; first compound 8 µM) of the same compound?
**A.** 0.218

**Q.** What about the relative viability (HCC-15; first compound 0.08 µM) of the same compound?
**A.** 0.896

**Q.** And the relative viability (HCC-15; first compound 0.253 µM)?
**A.** 1.05

**Q.** What about the relative viability (HCC-15; first compound 0.8 µM) of the same compound?
**A.** 0.89

**Q.** What about the relative viability (HCC-15; first compound 2.53 µM) of the same compound?
**A.** 0.797

**Q.** And the relative viability (HCC-15; first compound 8 µM)?
**A.** 0.922

**Q.** And the relative viability (H3255; first compound 0.08 µM)?
**A.** 0.631

**Q.** And the relative viability (H3255; first compound 0.253 µM)?
**A.** 0.755

**Q.** What about the relative viability (H3255; first compound 0.8 µM) of the same compound?
**A.** 0.637

**Q.** And the relative viability (H3255; first compound 2.53 µM)?
**A.** 0.653

**Q.** And the relative viability (H3255; first compound 8 µM)?
**A.** 0.797

**Q.** And the relative viability (CAL-12T; first compound 0.08 µM)?
**A.** 1.17

**Q.** And the relative viability (CAL-12T; first compound 0.253 µM)?
**A.** 1.28

**Q.** What about the relative viability (CAL-12T; first compound 0.8 µM) of the same compound?
**A.** 1.56

**Q.** And the relative viability (CAL-12T; first compound 2.53 µM)?
**A.** 1.1

**Q.** What about the relative viability (CAL-12T; first compound 8 µM) of the same compound?
**A.** 0.724

**Q.** What about the relative viability (PC-3 [JPC-3]; first compound 0.08 µM) of the same compound?
**A.** 0.994

**Q.** And the relative viability (PC-3 [JPC-3]; first compound 0.253 µM)?
**A.** 1.04

**Q.** And the relative viability (PC-3 [JPC-3]; first compound 0.8 µM)?
**A.** 1.07

**Q.** And the relative viability (PC-3 [JPC-3]; first compound 2.53 µM)?
**A.** 0.958

**Q.** What about the relative viability (PC-3 [JPC-3]; first compound 8 µM) of the same compound?
**A.** 1.03

**Q.** What about the relative viability (LK-2; first compound 0.08 µM) of the same compound?
**A.** 1.22

**Q.** And the relative viability (LK-2; first compound 0.253 µM)?
**A.** 1.11

**Q.** What about the relative viability (LK-2; first compound 0.8 µM) of the same compound?
**A.** 1.49

**Q.** What about the relative viability (LK-2; first compound 2.53 µM) of the same compound?
**A.** 0.995

**Q.** And the relative viability (LK-2; first compound 8 µM)?
**A.** 1.75

**Q.** What about the relative viability (EKVX; first compound 0.08 µM) of the same compound?
**A.** 1.05

**Q.** What about the relative viability (EKVX; first compound 0.253 µM) of the same compound?
**A.** 0.963

**Q.** What about the relative viability (EKVX; first compound 0.8 µM) of the same compound?
**A.** 0.805

**Q.** What about the relative viability (EKVX; first compound 2.53 µM) of the same compound?
**A.** 1

**Q.** And the relative viability (EKVX; first compound 8 µM)?
**A.** 0.755

**Q.** And the relative viability (NCI-H2405; first compound 0.08 µM)?
**A.** 0.749

**Q.** And the relative viability (NCI-H2405; first compound 0.253 µM)?
**A.** 0.777

**Q.** What about the relative viability (NCI-H2405; first compound 0.8 µM) of the same compound?
**A.** 0.792

**Q.** What about the relative viability (NCI-H2405; first compound 2.53 µM) of the same compound?
**A.** 0.73

**Q.** And the relative viability (NCI-H2405; first compound 8 µM)?
**A.** 0.614

**Q.** And the relative viability (NCI-H322M; first compound 0.08 µM)?
**A.** 0.784

**Q.** What about the relative viability (NCI-H322M; first compound 0.253 µM) of the same compound?
**A.** 0.79

**Q.** What about the relative viability (NCI-H322M; first compound 0.8 µM) of the same compound?
**A.** 0.79

**Q.** And the relative viability (NCI-H322M; first compound 2.53 µM)?
**A.** 0.964

**Q.** And the relative viability (NCI-H322M; first compound 8 µM)?
**A.** 0.838

**Q.** And the relative viability (PC-14; first compound 0.08 µM)?
**A.** 0.936

**Q.** And the relative viability (PC-14; first compound 0.253 µM)?
**A.** 1.17

**Q.** What about the relative viability (PC-14; first compound 0.8 µM) of the same compound?
**A.** 1.11

**Q.** And the relative viability (PC-14; first compound 2.53 µM)?
**A.** 0.821

**Q.** What about the relative viability (PC-14; first compound 8 µM) of the same compound?
**A.** 1.05

**Q.** What about the relative viability (NCI-H1975; first compound 0.08 µM) of the same compound?
**A.** 0.722

**Q.** What about the relative viability (NCI-H1975; first compound 0.253 µM) of the same compound?
**A.** 0.786

**Q.** And the relative viability (NCI-H1975; first compound 0.8 µM)?
**A.** 0.656

**Q.** And the relative viability (NCI-H1975; first compound 2.53 µM)?
**A.** 0.498

**Q.** What about the relative viability (NCI-H1975; first compound 8 µM) of the same compound?
**A.** 0.452
